Data on 1 compound can be found in patent publication EP0637237B1, “CALCIUM RECEPTOR-ACTIVE MOLECULES” (BRIGHAM AND WOMEN'S HOSPITAL, INC., priority 1993, dated 1994).

Assay type in all cases: cell-based
One assay addresses T1, C-cell Ca^2+ receptor (Rattus norvegicus, UniProt P48442).
T1 sequence (P48442 20-1079): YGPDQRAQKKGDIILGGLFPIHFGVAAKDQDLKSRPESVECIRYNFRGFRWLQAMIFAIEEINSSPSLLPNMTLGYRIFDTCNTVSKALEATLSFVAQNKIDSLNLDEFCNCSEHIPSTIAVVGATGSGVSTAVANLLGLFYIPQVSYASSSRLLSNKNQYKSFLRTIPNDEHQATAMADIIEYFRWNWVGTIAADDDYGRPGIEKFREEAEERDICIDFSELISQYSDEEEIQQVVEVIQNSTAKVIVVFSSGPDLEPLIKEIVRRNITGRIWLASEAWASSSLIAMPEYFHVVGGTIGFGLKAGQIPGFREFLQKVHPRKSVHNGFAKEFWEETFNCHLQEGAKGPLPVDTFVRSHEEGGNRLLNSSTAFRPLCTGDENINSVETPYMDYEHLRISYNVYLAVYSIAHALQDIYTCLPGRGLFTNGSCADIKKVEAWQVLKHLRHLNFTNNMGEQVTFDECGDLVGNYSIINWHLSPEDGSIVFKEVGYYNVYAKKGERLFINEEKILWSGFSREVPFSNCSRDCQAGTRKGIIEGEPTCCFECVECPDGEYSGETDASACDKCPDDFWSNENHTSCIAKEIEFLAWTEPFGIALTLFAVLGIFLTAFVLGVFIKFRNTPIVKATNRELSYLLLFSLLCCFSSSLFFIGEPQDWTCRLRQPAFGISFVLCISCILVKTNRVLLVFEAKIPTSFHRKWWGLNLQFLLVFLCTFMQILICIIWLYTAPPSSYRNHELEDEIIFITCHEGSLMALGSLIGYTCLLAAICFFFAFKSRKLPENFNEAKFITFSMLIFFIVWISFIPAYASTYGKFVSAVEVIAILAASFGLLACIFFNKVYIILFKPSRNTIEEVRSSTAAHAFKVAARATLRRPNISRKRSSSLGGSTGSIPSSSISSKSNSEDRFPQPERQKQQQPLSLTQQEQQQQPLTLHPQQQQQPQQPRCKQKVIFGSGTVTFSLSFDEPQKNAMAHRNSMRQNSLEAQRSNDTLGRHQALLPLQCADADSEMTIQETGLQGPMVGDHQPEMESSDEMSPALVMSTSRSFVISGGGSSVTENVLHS
Conditions: spermine 10 mM, neomycin B 5 mM.

For assay [1], the system named is osteoclast Ca^2+ receptor. Description: [Ca2+]i (indo-1) in single rat osteoclasts.
Assay [2] deals with T2, bovine parathyroid Ca^2+-receptor (Bos taurus, UniProt P35384).
T2 construct: expressed in transfected cells; host or cells: Xenopus laevis oocytes injected with cRNA from the BoPCaR 1 cDNA (plasmid pSPORT1, ATCC 75416)
T2 sequence (P35384 20-1085): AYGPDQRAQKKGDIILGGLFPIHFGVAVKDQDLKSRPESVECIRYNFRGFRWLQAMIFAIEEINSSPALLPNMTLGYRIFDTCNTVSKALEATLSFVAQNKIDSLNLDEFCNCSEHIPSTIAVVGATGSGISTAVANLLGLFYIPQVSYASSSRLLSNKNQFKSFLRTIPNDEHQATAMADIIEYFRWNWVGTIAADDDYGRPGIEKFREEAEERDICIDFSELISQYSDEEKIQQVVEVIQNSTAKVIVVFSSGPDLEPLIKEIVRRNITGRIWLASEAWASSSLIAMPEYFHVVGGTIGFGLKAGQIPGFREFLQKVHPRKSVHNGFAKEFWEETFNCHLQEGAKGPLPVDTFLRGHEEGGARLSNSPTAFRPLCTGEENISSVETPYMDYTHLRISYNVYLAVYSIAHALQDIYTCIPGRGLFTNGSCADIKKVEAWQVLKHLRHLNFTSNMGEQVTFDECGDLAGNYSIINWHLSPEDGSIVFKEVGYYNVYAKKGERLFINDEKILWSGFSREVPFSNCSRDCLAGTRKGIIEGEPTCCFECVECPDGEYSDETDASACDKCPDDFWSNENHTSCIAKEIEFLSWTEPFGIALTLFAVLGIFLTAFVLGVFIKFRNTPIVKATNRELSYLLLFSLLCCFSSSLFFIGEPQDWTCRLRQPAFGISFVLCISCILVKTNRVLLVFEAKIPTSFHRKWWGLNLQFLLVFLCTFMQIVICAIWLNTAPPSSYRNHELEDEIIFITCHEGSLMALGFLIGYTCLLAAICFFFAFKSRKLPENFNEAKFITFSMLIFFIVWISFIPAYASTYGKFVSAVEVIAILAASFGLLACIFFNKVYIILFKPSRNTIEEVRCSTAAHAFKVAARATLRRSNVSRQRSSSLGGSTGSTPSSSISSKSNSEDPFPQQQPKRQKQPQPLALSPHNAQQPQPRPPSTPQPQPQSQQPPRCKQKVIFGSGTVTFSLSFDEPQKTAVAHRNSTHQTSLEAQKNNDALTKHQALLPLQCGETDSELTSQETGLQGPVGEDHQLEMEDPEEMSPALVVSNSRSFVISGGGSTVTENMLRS
As to the kind of experiment: Cl- current in Xenopus oocytes expressing the cloned receptor (BoPCaR 1). To be noted: neomycin 20-100 µM.

Structures are written as SMILES.

Turning to `NC[C@@H]1O[C@H](O[C@H]2[C@@H](O)[C@H](O[C@@H]3[C@@H](O)[C@H](N)C[C@H](N)[C@H]3O[C@H]3O[C@H](CN)[C@@H](O)[C@H](O)[C@H]3N)O[C@@H]2CO)[C@H](N)[C@@H](O)[C@@H]1O` [neomycin B], the “effect on basal [Ca2+]i” value (on C-cell Ca^2+ receptor; in assay [1] (5 mM)) was “without effect on basal [Ca^2+]i” each time. Moreover, in assay [1] (neomycin 10 mM, spermine 20 mM, verapamil 100 µM), the “effect on the response to subsequent extracellular Ca2+ (25 mM)” value was “did not block”. For the same compound, the “increase in [Ca2+]i in rat osteoclasts” value in assay [1] (neomycin 10 mM, spermine 10 or 20 mM) was “Neither neomycin (10 mM) nor spermine (10 or 20 mM) caused increases in [Ca^2+]i”. For the same compound, the “increase in [Ca2+]i in osteoclasts” value was “failed to evoke any increase in [Ca^2+]i” in assay [1] (neomycin B 1 mM, spermine 1 or 5 mM, Fig. 23) and “none of these caused any large increase in [Ca^2+]i” in assay [1] (screening, small responses were detected). In assay [2], the “changes in Cl- current” value is “produced changes in Cl^- current in oocytes essentially identical to those produced by Ca^2+ or Gd^3+”.
